Drawing on PubChem BioAssay (NCI), this text covers GI50 and TGI for 20 molecules.

Holding throughout (assay): growth of human tumour cells (NCI), 48 h
Test [1] concerns CCRF-CEM leukemia.
In test [2] the test system is HCC-2998 colon.
For test [3], the system named is LOX IMVI melanoma.
The test system of test [4] is MCF7 breast.
In test [5] the test system is MDA-MB-435.
The test system of test [6] is OVCAR-3 ovarian.
In test [7] the test system is SF-295 CNS.
Test [8] deals with SK-MEL-28 melanoma.
In test [9] the test system is SNB-75 CNS.
Test [10] deals with T-47D breast.

Structures are written as SMILES.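 48-hour exposure; five concentrations; linearly interpolated endpoints. The concentration for 50% growth inhibition is given as GI50. Definition used: TGI = concentration required for complete inhibition of growth.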

`c1ccc([As]=[As]c2ccccc2)cc1` (stereo not given): the GI50 was 0.234 µM in test [1]; 1.72 µM in [2]; 0.117 µM in [3]; 0.251 µM in [4]; 1.27 µM in [5]; 0.676 µM in test [6]. In addition, the GI50 was 2.27 µM in test [7], 0.922 µM in test [8], 0.698 µM in [9] and 0.221 µM in [10]. Also, the TGI was found to be 1.62 µM in test [1]; 3.41 µM in test [2]; 0.653 µM in test [3]; 1.07 µM in test [4]; 2.72 µM in test [5]; 1.85 µM in test [6]. Moreover, the TGI in test [7] is 5.75 µM; in test [8], 2.32 µM; in test [9], 2.65 µM; in [10], 0.876 µM.

For `CN(C)c1ccc(C(c2ccc(Cl)cc2)c2ccc(N(C)C)cc2)cc1`, the TGI in [1], in test [2], in [3], in [4], in [5] and in test [6] was over 100 µM each time. For the same molecule, the TGI in test [7], in test [8], in [9] and in [10] was over 100 µM each time.

For `COc1ccc(N(/C=C/C(=O)C(F)(F)F)CC(=O)c2ccc(Cl)cc2)cc1`, the GI50 was 12.2 µM in test [1]; 17 µM in test [2]; 14.3 µM in test [3]; 18.4 µM in test [4]; 5.68 µM in test [5]; 12.8 µM in test [6]. Also, the figures for the GI50 in test [7], in test [8] and in test [10] were 13.6 µM, 18.1 µM and 21.9 µM, respectively. In addition, the TGI in test [1] was 38.1 µM; in test [2], 36.2 µM; in test [3] it was 28.8 µM; in test [4], over 100 µM; in test [5], 22 µM; in test [6], 36.2 µM. Moreover, the TGI in test [7] is 31.7 µM; in test [8], 36.2 µM; in [10], over 100 µM.

Regarding `CCN1C[C@]2(COC)[C@H](O)C[C@H](OC)[C@]34C1[C@H]([C@H](OC)[C@H]23)[C@]1(OC(C)=O)[C@H]2[C@@H](OC(=O)c3ccccc3)[C@](O)(C[C@H]24)[C@@H](OC)[C@@H]1O`, the TGI in [1], in [2], in [3], in test [4], in test [5] and in test [7] was over 100 µM in each case. Further, the TGI in test [8], in test [9] and in [10] was over 100 µM in each case.

As to `COc1ccc(Cn2cc3c(c2-c2ccccc2)CCc2cnoc2-3)cc1N`, the GI50 in test [1] was 0.245 µM; in [2], 0.496 µM; in test [3] it was 0.766 µM; in test [4], 0.05 µM; in test [6] it was 0.0526 µM; in [7], 0.154 µM. Also, the GI50 in test [8] is 0.247 µM; in [9], 0.114 µM; in [10], 3.86 µM. Further, the TGI in test [2] was over 100 µM; in test [3], over 100 µM; in test [4] it was over 100 µM; in test [6] it was 0.244 µM; in test [7], 3.28 µM; in test [8], over 100 µM. Besides, the TGI was 0.777 µM in test [9] and over 100 µM in [10].

For `CCCCCCCC(=O)OCC(=O)[C@]1(O)Cc2c(O)c3c(c(O)c2[C@@H](OC2CC(N)C(O)C(C)O2)C1)C(=O)c1c(OC)cccc1C3=O` (stereo not given in full), the GI50 in test [2] was 0.137 µM; in [5], 0.325 µM; in [7], 0.0471 µM; in test [8], 0.199 µM; in test [10], 0.0512 µM. Besides, the TGI in test [2] is 0.767 µM; in [4], 0.417 µM; in test [5], 1.88 µM; in test [7] it was 1.23 µM; in [8] it was 0.902 µM; in [10] it was 1.2 µM.

Take `COc1ccc(C2C=C(c3ccc(Cl)cc3)N=C3SC=C(C)N32)c(Br)c1` (stereo not given): the GI50 in [1] was 2.37 µM; in test [2] it was 4.43 µM; in test [3], 2.21 µM; in test [4] it was 2.32 µM; in test [5], 3.02 µM; in [6], 2.36 µM. The GI50 in [8] was 5.11 µM; in test [9] it was 3.77 µM; in test [10] it was 3.45 µM. Moreover, the TGI in test [1] came out at 11.8 µM; in [2], 14.6 µM; in test [3] it was 7.56 µM; in test [4], 12.5 µM; in test [5], 14.9 µM; in test [6], 5.48 µM. The TGI in test [8] was 17.4 µM; in [9], 16.7 µM; in test [10], 21.5 µM.

Regarding `Clc1ccccc1C(Nc1ncccn1)Nc1ncccn1`, the TGI in test [2], in [3], in [4], in [5], in test [6] and in test [7] was over 100 µM each time. For the same molecule, the TGI in test [8], in test [9] and in test [10] was over 100 µM each time.

Regarding `NNC(=O)c1ccc(OCc2nc3ccccc3[nH]2)cc1`, the TGI in test [3], in test [4], in test [5], in test [6], in test [7] and in test [8] was over 100 µM each time. Also, the TGI in test [10] is over 100 µM.

`Nc1nc(=O)n([C@@H]2CS[C@H](CO)O2)cc1F`: the GI50 in test [1], in test [2], in test [3], in test [4], in test [5] and in test [6] was over 100 µM each time. For the same molecule, the GI50 in test [7], in test [8] and in test [10] was over 100 µM throughout. The TGI in test [1], in [2], in [3], in test [4], in [5] and in test [6] was over 100 µM each time. Besides, the TGI in test [7], in test [8] and in test [10] was over 100 µM each time.

As for `COc1ccc(Nc2nc3cc(N)cc(N)c3nc2-c2ccccc2)cc1OC`, the GI50 in test [2] was 18.4 µM; in test [3], 25.8 µM; in test [4], 20.5 µM; in [5], 16.3 µM; in test [6], 29.9 µM; in test [7], 16.9 µM. Besides, the GI50 was 21.5 µM in [8] and 14.4 µM in test [10]. The TGI in test [2] is 39.6 µM; in test [3], 72.2 µM; in test [4], 44.8 µM; in [5], 32.1 µM; in [6] it was over 100 µM; in test [7], 45.3 µM. Further, the values for the TGI in [8] and in [10] were 49.7 µM and 38.2 µM, respectively.

Take `CC1=C(C)C2(O)C(=C(C)C1=O)/C(=C(/O)c1ccccc1)c1nc3ccccc3n12` (stereo not given): the GI50 is 12.2 µM in [1]; 16.7 µM in test [3]; 17.3 µM in test [5]; 12.6 µM in [6]; 15.5 µM in test [7]; 20.6 µM in [8]. Moreover, the GI50 in test [9] was 11.7 µM; in test [10], 14.5 µM. In addition, the TGI came to 38.5 µM in test [1]; 34.6 µM in [3]; 35.1 µM in test [5]; 38.6 µM in test [6]; 33.2 µM in test [7]; 49.4 µM in test [8]. In addition, the TGI in [9] stood at 32.1 µM; in [10], 33.1 µM.

Regarding `O=C1c2ccccc2C(=O)c2c(NCC3CO3)ccc(NCC3CO3)c21` (stereo not given), the TGI in [2] was over 81.4 µM; in [3], 0.0161 µM; in [4], 1.25 µM; in test [5], 2.58 µM; in test [6], 15.1 µM; in [7], 23.7 µM. The TGI in [8] was 28.1 µM; in test [9], over 100 µM; in [10] it was over 42.1 µM.

In the case of `C=C(C)C(=O)O[C@@H]1C/C(C)=C\[C@H](OC(C)=O)C[C@](C)(O)/C=C2/OC(=O)C(COC(C)=O)=C21`, the TGI is 1.64 µM in test [2]; 0.373 µM in [3]; over 36.5 µM in test [4]; 2.8 µM in test [5]; 23.9 µM in [7]; 0.762 µM in [8]. Also, the values for the TGI in [9] and in test [10] were 16 µM and 22.1 µM, respectively.

As for `O=C1c2ccccc2C(=O)c2sc(Nc3ccccc3Cl)nc21`, the TGI in [1] turned out to be 9.56 µM; in test [2], 34.9 µM; in [3], 6.63 µM; in test [4], 40.6 µM; in test [6], 25.8 µM; in [7], 30.1 µM. In addition, the figures for the TGI in test [8], in test [9] and in test [10] were 30.2 µM, 27.1 µM and 34.5 µM, respectively.

As to `Cn1c(=S)c2[nH]c(SCCN3C(=O)c4ccccc4C3=O)nc2n(C)c1=O`, the TGI in test [1], in [3], in test [4], in test [5], in test [6] and in [7] was over 100 µM in each case. The TGI in test [8], in test [9] and in test [10] was over 100 µM each time.

On to `O=C(C[P+](c1ccccc1)(c1ccccc1)c1ccccc1)C[P+](c1ccccc1)(c1ccccc1)c1ccccc1`, for which the GI50 in [1] is 0.229 µM; in [2], 0.784 µM; in [3], 0.235 µM; in test [4], 0.332 µM; in test [5], 0.233 µM; in test [6] it was 0.296 µM. Besides, the GI50 in [7] was 1.46 µM; in test [8], 0.332 µM; in test [9], 0.254 µM. For the same molecule, the TGI in test [1] was found to be 1.05 µM; in test [2], 2.17 µM; in [3], 0.637 µM; in [4], 1.6 µM; in test [5], 0.666 µM; in [6] it was 0.807 µM. For the same molecule, the TGI in test [7] was found to be 2.98 µM; in [8] it was 1.29 µM; in [9], 1.44 µM.

As for `CCOC(=O)c1cnn2c3ccccc3n(S(=O)(=O)c3ccc(OC)cc3)c12`, the GI50 is 0.257 µM in test [1]; 0.349 µM in [2]; 0.496 µM in test [3]; 0.0998 µM in [4]; 0.0473 µM in test [5]; 0.181 µM in test [6]. The GI50 is 0.255 µM in [7], 5.98 µM in test [8] and 13.8 µM in test [10]. Also, the TGI was over 100 µM in test [1]; 30.1 µM in test [2]; over 61 µM in test [3]; over 100 µM in [4]; over 100 µM in test [5]; 0.493 µM in [6]. In addition, the TGI in test [8] and in test [10] was over 100 µM each time.

In the case of `COc1cc(-n2ccnc2)cc(OC)c1OC`, the GI50 in test [1] is 47.6 µM; in test [2] it was 99.5 µM; in [3], 60.3 µM; in test [4], 41.7 µM; in test [5] it was 75.6 µM; in [6] it was 51.6 µM. Further, the GI50 is 20.9 µM in test [7], over 100 µM in test [8] and over 100 µM in test [10]. Further, the TGI in [1], in test [2], in test [3], in test [4], in test [5] and in test [6] was over 100 µM in each case. For the same molecule, the TGI in test [7] was 63.1 µM; in [8] it was over 100 µM; in test [10] it was over 100 µM.

`O=C(NCc1ccco1)c1cccc(NC2=C(Cl)C(=O)N(Cc3ccccc3)C2=O)c1`: the GI50 was 10.8 µM in [2]; 3.72 µM in [3]; 11.5 µM in test [4]; 2.33 µM in test [5]; 2.44 µM in test [6]; 1.81 µM in test [7]. The GI50 in test [8] is 16.4 µM; in [9], 14.1 µM; in test [10], 23.1 µM. Also, the TGI was 25.6 µM in [2]; over 100 µM in [3]; over 100 µM in test [4]; 7.39 µM in test [5]; 7.71 µM in test [6]; 9.4 µM in test [7]. Moreover, the TGI in [8] was 46.6 µM; in test [9], 87.2 µM; in test [10] it was over 100 µM.
